The data set in a line: Human HepG2 cell viability assay in 384 well format. The format is toxicity, cell-based. More on the design: dose 125 nL, time 70.5 hour; cytotoxicity at 70.5 h: concentration not given beside the values. To be noted: HepG2 cells, read-out: Inhibition.
Consider `COc1ccc(Cc2nc3c([nH]2)CC(C)(C)CNC3=O)c(OC)c1`, for which the cytotoxicity at 70.5 h was -9.23%. `COc1cc(C)nc(N2CCN(C(=O)c3cccc(C#N)c3)CC2)n1`: the cytotoxicity at 70.5 h is -5.09%.

Turning to `CC1COCCN1Cc1nc(-c2ccc(F)cc2)no1` (stereo unspecified), the cytotoxicity at 70.5 h is -0.197%. As for `CN(C)C(=O)Cc1ccccc1NCc1cccc2cccnc12`, the figure is 57.4%; as for `O=C(CNC(=O)Nc1c(F)cccc1Oc1ccccc1)NC1CC1`, -9.17%; as for `O=C(NCCc1nncn1C1CC1)C1SCCc2ccccc21` (stereo unspecified), -7.17%. As for `Cc1nc2ccn(C(C)C)c(=O)c2cc1C(=O)O`, the figure is -24.7%; as for `Cn1nc(C2CCN(C(=O)c3cccs3)CC2)c2cccnc21`, -4.94%. Next, `Cc1cccc(CNC(=O)NCC2CCN(Cc3ncc[nH]3)C2)c1` (stereo unspecified): -16.7%; `COCc1cc(CNC(=O)c2c(O)cccc2O)n[nH]1`: -1.82%. `Cc1cc(N(C)C)nc(N2CCn3c(nnc3C3CC3)C2)n1`: the cytotoxicity at 70.5 h came to 5.46%.

As for `O=C1CCCN1CCC1CCN(C2CCCNC2)CC1` (stereo unspecified), the cytotoxicity at 70.5 h was -1.85%. Next, `COc1cccc(C(=O)N2CCN(C(=O)CCn3ccnc3)CC2)c1`: -5.33%; `O=C(CCCOc1ccc(F)cc1F)N1CCCC(n2cccn2)C1` (stereo unspecified): -3.24%. Take `CSc1ncccc1C(=O)NCc1ccc(CS(=O)(=O)NC(C)C)cc1`: the cytotoxicity at 70.5 h turned out to be 2.32%. As for `Cc1c(C(=O)NC2(C#N)CCCC2)nnn1-c1ccccc1Cl`, the cytotoxicity at 70.5 h is -9.11%. In the case of `O=C1N(CCc2ccccc2)CCCC12CCN(C(CO)CO)C2` (stereo unspecified), the cytotoxicity at 70.5 h was -4.14%.

Consider `CC1(C)CN(C(=O)c2occc2COc2cccc(C#N)c2)CCO1`, for which the cytotoxicity at 70.5 h came out at 3.19%. Next, `Cc1ccc(CN2CCc3c(nc4cc(C5CC5)nn4c3O)C2)s1`: 18.3%; `CNc1c(NCc2ccco2)c(=O)c1=O`: -12.4%; `O=C(NCc1cccnc1)C1=NOC2(CCN(C(=O)N3CCCC3)C2)C1` (stereo unspecified): -9.94%. Next, `COCc1ncc(CN2CC[C@@](C)(O)[C@@H](Cc3ccccc3)C2)cn1`: -1.9%; `CCc1nc(CN2CCOC(CN(CC)c3cccnn3)C2)cs1` (stereo unspecified): -12.8%. Take `CN1C(=O)CC(N(C)Cc2nc3ccccc3c(=O)[nH]2)C1=O` (stereo unspecified): the cytotoxicity at 70.5 h stood at 23.4%. As for `Cc1[nH]ncc1C(=O)NCC1CCC2(CC1)OCCO2`, the figure is -5.66%; as for `O=C1OCCCN1Cc1nc(-c2ccc(N3CCCCC3)cc2)no1`, -11.4%.

Regarding `CN(Cc1nnc2n1CCC2)C(=O)c1ccc2c(c1)OCCCO2`, the cytotoxicity at 70.5 h was determined as 18.9%. On to `Cc1ccc2c(c1)C(=O)CC1(CCN(Cc3ccccc3)CC1)O2`, for which the cytotoxicity at 70.5 h was -2.96%.

In the case of `CC(C)S(=O)(=O)C(C)C(=O)NCc1ccccc1OCc1ccccc1` (stereo unspecified), the cytotoxicity at 70.5 h was -1.68%. As for `CC(=O)Nc1ccc(Cl)c(C(=O)N(C)C(C)c2nccs2)c1` (stereo unspecified), the cytotoxicity at 70.5 h was -3.55%. Consider `COCCn1c2c(ccc1=O)CC(NS(C)(=O)=O)CC2` (stereo unspecified), for which the cytotoxicity at 70.5 h was found to be 16%.

Consider `Cc1csc(N2CCN(C(=O)CCc3nccs3)CC2)n1`, for which the cytotoxicity at 70.5 h is -2.43%. For `COc1ccc(NC(=O)Cc2c(C)nc3c(c2C)c(=O)[nH]n3C)cn1`, the cytotoxicity at 70.5 h was -4.63%. As for `Cc1nc2[nH]cnc(NCCN3CCOCC3)c-2n1`, the figure is -1.72%; as for `Cc1cccc(OCC(O)CNCc2c(C)nn(C)c2N(C)C)c1` (stereo unspecified), -8.26%; as for `Cc1nc(CO[C@@H]2CN(Cc3cccnc3)[C@@H]3COC[C@@H]32)cs1`, -10.3%.

Take `O=C(O)CCc1nc2nccc(C(F)(F)F)n2n1`: the cytotoxicity at 70.5 h was found to be 0.723%. On to `COCc1nnc2n1CCN(Cc1ccoc1)C2`, for which the cytotoxicity at 70.5 h is -3.74%.

Consider `CC(C)=CCN1CCC(c2nccn2Cc2cscn2)CC1`, for which the cytotoxicity at 70.5 h is -2.36%.

In the case of `Clc1ccc(NCc2nnc(C3CC3)o2)cc1Cl`, the cytotoxicity at 70.5 h stood at 24.8%. Take `Cc1cc(C)n(C2CCN(C(=O)CN3C(=O)CSc4ccccc43)C2)n1` (stereo unspecified): the cytotoxicity at 70.5 h amounted to 30.3%. As for `Cc1cn2c(n1)CCC(NC(=O)c1cncnc1C)C2` (stereo unspecified), the figure is -5.83%. With `O=C(C1CC1)N1CCN(c2ccc(-n3cncn3)nn2)CC1`, the cytotoxicity at 70.5 h was -3.85%. As for `CCOCC1c2c(ncn2C(C)C)CCN1C(=O)C1CC1` (stereo unspecified), the figure is -3.05%; as for `CC(=O)N[C@@H]1CN(C(=O)c2cc3ccccc3[nH]2)C[C@H]1c1ccc(C)o1`, -9.58%.

As for `Cc1nc(C)n(C2CCCN(C(=O)CCc3cn(C)nc3C)C2)n1` (stereo unspecified), the cytotoxicity at 70.5 h was -0.365%. Turning to `Cc1nn(C)c(N(C)C)c1CNCc1ccnc(N2CCCC2)c1`, the cytotoxicity at 70.5 h was -4.33%.

On to `CCc1ccc(C(C)NC(=O)CN(C)Cc2ccc(C)o2)cc1` (stereo unspecified), for which the cytotoxicity at 70.5 h is -15%. Next, `CCNC(=O)c1ccc2ccc(N(CC)CC)n2c1`: -8.54%; `O=C(Cc1cccs1)Nc1cnn(C2CCOC2)c1` (stereo unspecified): 40.6%. Next, `CN(C)CCN1CCN(C)C2(CCN(c3nccs3)CC2)C1=O`: -3.76%. Next, `Cn1cc(-c2ncc3c(c2C(=O)O)CCN(CC2CCOC2)C3)cn1` (stereo unspecified): -3.12%; `COCCNC(=O)c1nc2c(s1)CCCN2Cc1ccccc1`: -6.6%; `COc1cc(N2CCc3ncnc(-c4ccncc4)c3CC2)ncn1`: -6.14%. In the case of `Cn1nccc1C(=O)N1CCC(c2nnsc2S(C)(=O)=O)CC1`, the cytotoxicity at 70.5 h was -5.74%. As for `CC(=O)N1CCCN(C(=O)c2oc(Br)cc2C)CC1`, the figure is -3.38%; as for `CN(C)C(=O)c1ccc2c(c1)N(C)C(CC(=O)NCc1ccno1)CO2` (stereo unspecified), -4.48%; as for `COc1cccc(-n2c(C)cc(C(=O)O)c2C)c1`, -5.75%. Next, `Cc1nc(CN2CCCC(N(C)CCc3ccncc3)C2)no1` (stereo unspecified): 17.8%; `Cc1nn(C)c2c(=O)n(CC(=O)NCc3ccccn3)ccc12`: 0.706%. Turning to `Cc1ccccc1N1CCCN(C(=O)CCc2ccncc2)CC1`, the cytotoxicity at 70.5 h is -9.24%. Turning to `COc1ccc(C(=O)N(C)Cc2ncc(C)c(OC)c2C)c(OC)c1`, the cytotoxicity at 70.5 h was -4.31%. As for `CN(C)CC(=O)N1CCN(CC(O)c2ccc(F)cc2)CC1` (stereo unspecified), the figure is -1.76%; as for `COC(=O)c1ccc(N(C(=O)c2cc(Cl)ccn2)C(C)C)c(C)c1`, -2.71%. As for `CSCCCNc1nccc(-c2cc(C(=O)O)ccn2)n1`, the figure is -7.43%; as for `CCOCC(=O)N1CCc2nc(C)nc(NC(C)C)c2CC1`, 16%; as for `Cc1noc(CCCC(=O)Nc2ncccc2Br)n1`, -7.59%. Next, `COC(=O)C1CCCCN1C(=O)c1ccccc1F` (stereo unspecified): -2.94%; `CC(C)CNC(=O)c1ccc(NC(=O)NC(C)c2ccccn2)cc1` (stereo unspecified): -5.93%; `O=C(Nc1nnc(C(F)F)s1)N[C@H](CCO)c1ccccc1`: 0.703%.

On to `Cc1cnccc1-n1nc(C(C)C)nc1CCN(C)S(C)(=O)=O`, for which the cytotoxicity at 70.5 h was -1.14%. As for `CCOc1ncccc1NC(=O)c1ccc(C)s1`, the figure is -7.78%; as for `COc1ccc(NC(=O)CSc2nc(C)cc(C)n2)cn1`, -8.52%. Consider `OC1(CN2CCOC(CNc3cccnn3)C2)CCCCC1` (stereo unspecified), for which the cytotoxicity at 70.5 h was determined as 0.208%. Next, `Cc1ccc(CN2C[C@@H]3CN(CC4CCOCC4)CCO[C@@H]3C2)s1`: 8.99%. Next, `CNC(=O)C1(CCCc2cccnc2)CCCCN1` (stereo unspecified): -1.91%. Regarding `CCc1nccn1CCC(=O)N1CCCC1c1cncc(NC)n1` (stereo unspecified), the cytotoxicity at 70.5 h is 5.43%. Next, `Cn1cccc1C(=O)N1CC[C@H]2[C@@H]1CCC(=O)N2CC1CC1`: 3.01%; `CC(C)c1cc(N2CCC(N)CC2)n2nccc2n1`: -4%; `Cc1nc(CN(C)CC(c2cccs2)N2CCOCC2)no1` (stereo unspecified): -1.7%. Next, `O=C(Cn1nc(-c2ccc(F)cc2)oc1=O)NCc1ccccc1F`: -5.95%. On to `CCOc1ccc(NC(=O)c2cc3c([nH]c2=O)CCC3)cc1`, for which the cytotoxicity at 70.5 h is -13.3%.

In the case of `CN(CCSc1ccccc1)C(=O)c1cn2c(n1)CNCC2`, the cytotoxicity at 70.5 h was -12.8%.

As to `CCCn1nnnc1CSc1nccn1Cc1ccccn1`, the cytotoxicity at 70.5 h was -13.2%. Turning to `COc1cccc(S(=O)(=O)NC(=O)c2c(C)noc2C(C)C)c1`, the cytotoxicity at 70.5 h was -3.75%. Consider `COc1cccc2c1OCC(C(=O)NCc1nc3c(s1)CCCC3)C2` (stereo unspecified), for which the cytotoxicity at 70.5 h worked out at 21.6%.

`O=S(=O)(N1CCOCC1)N1CCCCC1CCc1ccc(O)cc1` (stereo unspecified): the cytotoxicity at 70.5 h was -1.47%. `CN1CCC(c2n[nH]c(=O)n2-c2cccc(Cl)c2)CC1`: the cytotoxicity at 70.5 h came to 10.8%. Turning to `CC(C)(C)CC(=O)NCC(=O)Nc1ccn(Cc2cccnc2)n1`, the cytotoxicity at 70.5 h is 3.55%. Next, `CC(Oc1ccccc1)C(=O)N1CCCN(Cc2nccn2C)CC1` (stereo unspecified): -10.4%; `COc1cccc(OCCNS(C)(=O)=O)c1`: 1.43%; `CC(OCC(F)(F)F)C(=O)NCc1ccc(-n2cncn2)nc1` (stereo unspecified): -12.1%. Next, `CC(C)(C)c1ncc2c(n1)CN(C(=O)c1ccc3[nH]cnc3c1)C2`: -3.17%; `Cc1noc(C)c1C(=O)Nc1ccc2ncn(CC(C)C)c(=O)c2c1`: 50.5%. As for `Cc1cc(C(=O)N2CCCC2CN2CCCC2)no1` (stereo unspecified), the cytotoxicity at 70.5 h was 12.9%. Next, `O=C(c1cc(Cl)cc2cccnc12)N1CCN(CCO)CC1`: -8.63%; `CN(C)c1ncc(CNC(=O)Nc2ccccc2F)n1C`: -1.14%. Next, `Cc1nnc(NC(=O)N2CCCN(C3CCCC3)CC2)s1`: -2.92%; `Cc1nnc(NC(=O)NCCN(C(=O)OC(C)(C)C)C2CC2)s1`: -4.34%. As for `CC(C)CCN1CC[C@H](c2nnc(Cc3c[nH]c4ccccc34)o2)C1`, the figure is 1.15%; as for `CS(=O)(=O)N1CCC2(CCN(C(=O)c3cccs3)CC2)CC1`, -8.9%.

For the origin of these results see ChEMBL document CHEMBL3507680, “University of Dundee, Gates Library screen for HepG2 cell viability”.
